The text below walks through data of PMC12123460 (ACS Central Science, 2025).

Data set [1] concerns the target T1, murine κ opioid receptor (KOR) (Mus musculus, UniProt P33534). The data set can be described thus: 3H-naltrexone radioligand competition binding, KOR membranes. On the technique in general: Loss of bound radioactivity is the signal in a displacement assay; it reports binding, not function.
For data set [2], the target named is full length human μ opioid receptor (MOR) (Homo sapiens, UniProt P35372). The data set can be described thus: 3H-naltrexone radioligand competition binding, MOR membranes.
For another data set, the target named is human MOR (Homo sapiens, UniProt P35372). The data set can be described thus: Live cell GloSensor cAMP assay, antagonist mode, MOR-expressing HEK293T cells. The following applies: 10 μM forskolin, DAMGO at EC80. In general terms: cAMP levels reflect the balance of adenylyl cyclase and phosphodiesterase activity.
The next data set addresses murine KOR (Mus musculus, UniProt P33534). The data set can be described thus: Live cell GloSensor cAMP assay, antagonist mode, KOR-expressing HEK293T cells. The settings on record: for KOR Signaling: GloSensor cAMP, HEK293T, 10 μM forskolin, salvinorin A at EC80.
In data set [3] the target is T1, murine κ opioid receptor (KOR). The data set can be described thus: biochemical.
Data set [4] concerns C56BL/6 mice.
Data set [5] concerns C56BL/6 mice. The data set can be described thus: Conditioned place aversion in morphine tolerant mice.
For data set [6], the system named is C56BL/6 mice. The data set can be described thus: Opioid withdrawal symptoms assay in morphine tolerant mice. The settings on record: 1 h after morphine 20 mg/kg, naloxone 10 mg/kg, #020_E1 30 mg/kg.
Where [7] appears, read: read-out: MOR Ki binding affinity, 3H-naltrexone displacement, mean from three dose response experiments.
[8] abbreviates: read-out: KOR Ki binding affinity, 3H-naltrexone displacement, mean from three dose response experiments.
Where [9] appears, read: read-out: MOR Ki estimate (†), calculated from the Cheng–Prusoff equation based on a single point at 33 μM ligand.

Entries after “also recorded” stand apart in the source; their conditions may differ. Where two headings read alike, the source gives them in different places.

As for 3H-naltrexone [reference compound], the Kd was 2.71 nM in data set [1] (read-out: Kd of the radioligand in KOR membrane preparation, saturation experiments, nonspecific binding with 33 μM unlabeled naloxone) and 1.97 nM in data set [2] (read-out: Kd of the radioligand in MOR membrane preparation, saturation experiments, nonspecific binding with 33 μM unlabeled naloxone).
Turning to `CCN1[C@@H]2C=C(C)[C@@](C)(C[C@H]2C(=O)OC)[C@@H]1C` (racemic) [(±)-#001], the Ki (commonly the dissociation constant of the complex between target and ligand, obtained from inhibition or displacement) in data set [2] (setting [7]) came to 7100 nM.
On to `CCN1CC(N2[C@@H]3C=C(c4ccccc4O)[C@@](C)(C[C@H]3C(=O)OC)[C@@H]2C)C1` (racemic) [(±)-#05], for which the values for the Ki in data set [1] (setting [8]) and in data set [2] (setting [9]) were 8000 nM and 16000 nM, respectively.
Take `CCCCC1=C[C@@H]2[C@H](C(=O)OC)C[C@@]1(C)[C@H](C)N2C[C@@H]1CCO1` (racemic) [(±)-#09]: the Ki in data set [1] (read-out: KOR Ki estimate (†), calculated from the Cheng–Prusoff equation based on a single point at 33 μM ligand) is 12000 nM; in data set [2] (setting [9]) it was 14000 nM.
Take `COC(=O)C1CC2(C)C(c3ccco3)=CC1N(C(C)CN1CCCC1)C2C` (racemic) [(±)-#11]: in data set [1] (setting [8]), the Ki came to 400 nM.
For the molecule `COC(=O)[C@@H]1C[C@]2(C)C(C)=C(C)[C@H]1N(Cc1cnn(CC(F)F)c1)[C@H]2C` (racemic) [(±)-#56], the Ki in data set [2] (setting [7]) was found to be 8800 nM.
On to `COC(=O)[C@@H]1C[C@]2(C)C(c3cc(F)cc(F)c3)=C[C@H]1N(C1CN(CCO)C1)[C@H]2C` (racemic) [(±)-#57], for which the Ki came to 1100 nM in data set [1] (setting [8]) and 5000 nM in data set [2] (setting [7]).
Regarding `COC(=O)C1CC2(C)C(c3cccc(O)c3)=CC1N(CCOc1c(C)cccc1C)C2C` (stereo not drawn) [#017_E2], on human MOR, the “MOR Signaling” value was “Antagonist”. The “KOR Signaling” value at murine KOR is listed as “Antagonist”.
As for `COC(=O)C1CC2(C)C(c3cccc(O)c3)=C(C)C1N(C)C2C` (stereo not drawn) [#019_E2], the “MOR Signaling” value on human MOR is listed as “Antagonist”. The “KOR Signaling” value on murine KOR is given as “Inverse Agonist”.
As to `CCn1cc(CN2C3C=C(c4cccc(O)c4)C(C)(CC3C(=O)OC)C2C)cn1` (stereo not drawn) [#020_E2], the “MOR Signaling” value on human MOR is “Antagonist”. In addition, at murine KOR, a half-maximal response (EC50) required 380 nM and the “KOR Signaling” value was “Antagonist”. The Ki in data set [3] is 1.1 nM.
Turning to `CC1=C(c2cccc(O)c2)C2(C)CCC1N(CCc1ccccc1)C2C` (stereo not drawn) [#030_E2], the “MOR Signaling” value on human MOR is reported as “Antagonist”. Also, the “KOR Signaling” value at murine KOR was “Inverse Agonist”.
On to `CCn1cc(CN2C3C(C)=C(c4cccc(O)c4)C(C)(CC3C(=O)OC)C2C)cn1` (stereo not drawn) [#031_E2], for which the “MOR Signaling” value on human MOR was “Antagonist”. Moreover, at murine KOR, the “KOR Signaling” value is “Inverse Agonist”.
For `COC(=O)[C@@H]1C[C@]2(C)C(c3ccc(O)c(OC)c3)=C[C@H]1N(CCN)[C@H]2C` [(+)-#33], the values for the Ki in data set [1] (setting [8]) and in data set [2] (setting [7]) were 1200 nM and 980 nM, respectively.
On to `CN1CC[C@]23c4c5ccc(O)c4O[C@H]2[C@@H](O)C=C[C@H]3[C@H]1C5` [morphine], for which the Tail flick latency result in the data set with C56BL/6 mice [4] (20 mg/kg i.p.) was “significantly increased tail flick latency”.
As to `C=CCN1CC[C@]23c4c5ccc(O)c4O[C@H]2C(=O)CC[C@@]3(O)[C@H]1C5` [naloxone], the “i.p. dose required to return tail flick latency to baseline levels” value in the data set on C56BL/6 mice [4] (blocking of 20mg/kg morphine induced analgesia, dose response) was determined as 10 mg/kg. In addition, in the data set with C56BL/6 mice [5] (morphine tolerant mice, withdrawal precipitated by the antagonist), the “Time spent in the antagonist-paired chamber pre- vs post-conditioning” value is “marked decrease in time spent in the antagonist-paired chamber; also recorded: significantly less time in the chamber”. Further, the CPA score result with C56BL/6 mice [5] (test minus pretest time in drug-paired compartment) was “avoided the treatment compartment to a greater extent”. The “Precipitated opioid withdrawal symptoms (jumps, wet-dog shakes, rearing, forepaw shakes)” value with C56BL/6 mice [6] is “induced behaviors consistent with aversive withdrawal”.
